In the assay the test system is B6C3F1 mice, B16 melanoma ip, median survival T/C. Nature of the assay: NCI In Vivo Anticancer Drug Screen. Data for tumor model B16 Melanoma (intraperitoneal) in B6C3F1 mice. As to conditions: endpoint: median survival time, schedule: Q01DX009 (ip), higher = longer survival. As to the method: The antitumor activity of compounds was measured in mice bearing transplantable tumors. Survival or tumor size were measured and the results are expressed as the measurement made in the treated group (T) divided by the measurement made in the vehicle treated control group (C). The tumor model used in this assay is B16 Melanoma (intraperitoneal) in B6C3F1 mice

[1] abbreviates: dose: 25.0 mg/kg/injection, vehicle: distilled water + Tween-80.
Where [2] appears, read: dose: 12.5 mg/kg/injection, vehicle: saline with Tween-80.
[3] abbreviates: dose: 25.0 mg/kg/injection, vehicle: saline with Tween-80.
The mark [4] stands for this setting: dose: 50.0 mg/kg/injection, vehicle: saline.
[5] abbreviates: dose: 100.0 mg/kg/injection, vehicle: saline.
Where [6] appears, read: dose: 200.0 mg/kg/injection, vehicle: saline.
The mark [7] stands for this setting: dose: 400.0 mg/kg/injection, vehicle: saline.
[8] abbreviates: dose: 6.25 mg/kg/injection, vehicle: saline with Tween-80.
Setting [9] is: dose: 25.0 mg/kg/injection, vehicle: saline.
Setting [10] is: dose: 50.0 mg/kg/injection, vehicle: saline with Tween-80.
Setting [11] is: dose: 100.0 mg/kg/injection, vehicle: saline with Tween-80.
The mark [12] stands for this setting: dose: 200.0 mg/kg/injection, vehicle: saline with Tween-80.
[13] abbreviates: dose: 400.0 mg/kg/injection, vehicle: saline with Tween-80.

The values below come from PubChem BioAssay AID200 (DTP/NCI, 2004).

Several values for one entry are separate records, joined by “and”; a condition that tells them apart may be missing. Identical values can stand only once. Inconclusive results and toxic doses are left out.

In the case of `NC(Cc1ccc(N(CCCl)Cc2ccccc2)cc1)C(=O)O` (centres undefined), the T/C by setting is: (dose: 0.78 mg/kg/injection, vehicle: distilled water + Tween-80) 99 % of control; (dose: 1.56 mg/kg/injection, vehicle: distilled water + Tween-80) 108 % of control; (dose: 3.12 mg/kg/injection, vehicle: distilled water + Tween-80) 115 % of control and 100 % of control; (dose: 6.25 mg/kg/injection, vehicle: distilled water + Tween-80) 123 % of control and 103 % of control; (dose: 12.5 mg/kg/injection, vehicle: distilled water + Tween-80) 110 % of control; under setting [1], 118 % of control.

As for `CCCCCCCCCCCCNCCCc1ccccc1`, the T/C is 94 % of control under setting [2] and 93 % of control under setting [3].

On to `NCCc1ccc(O)cc1`, for which the T/C was 96 % of control under setting [4], 96 % of control under setting [5], 96 % of control under setting [6] and 104 % of control under setting [7].

Regarding `O=Cc1ccc(O)c(O)c1`, the T/C is, setting by setting: under setting [8], 100 % of control; under setting [2], 87 % of control; (dose: 12.5 mg/kg/injection, vehicle: saline) 97 % of control; under setting [3], 94 % of control and 97 % of control; under setting [9], 99 % of control; (dose: 25.0 mg/kg/injection, vehicle: water) 112 % of control and 100 % of control. The T/C runs as follows: under setting [10], 93 % of control; under setting [4], 89 % of control; (dose: 50.0 mg/kg/injection, vehicle: water) 112 % of control and 90 % of control; under setting [11], 89 % of control; under setting [5], 96 % of control; (dose: 100.0 mg/kg/injection, vehicle: water) 95 % of control and 96 % of control. The T/C was 89 % of control under setting [12], 95 % of control under setting [6], 92 % of control under setting [13] and 104 % of control under setting [7].

Take `COc1c(O)cc2c(c1OC)-c1ccc(SC)c(=O)cc1C(NC(C)=O)CC2` (centres undefined): the T/C (dose: 1.25 mg/kg/injection, vehicle: Klucel (hydroxypropylcellulose) (HPC)) was 160 % of control; the T/C (dose: 1.8 mg/kg/injection, vehicle: Klucel (hydroxypropylcellulose) (HPC)) is 180 % of control and 182 % of control and 186 % of control; the T/C (dose: 2.5 mg/kg/injection, vehicle: Klucel (hydroxypropylcellulose) (HPC)) is 156 % of control and 167 % of control; the T/C (dose: 3.0 mg/kg/injection, vehicle: Klucel (hydroxypropylcellulose) (HPC)) is 178 % of control and 184 % of control and 198 % of control; the T/C (dose: 10.0 mg/kg/injection, vehicle: Klucel (hydroxypropylcellulose) (HPC)) is 180 % of control.

Turning to `O=C(Oc1ccccc1)c1cc(O)c(O)c(O)c1`, the T/C is, setting by setting: under setting [3], 98 % of control; under setting [10], 97 % of control; under setting [11], 97 % of control; under setting [12], 87 % of control.

Take `O=c1cc(-c2ccccc2)[nH]c2c1CCCC2`: the T/C was 109 % of control under setting [11] and 117 % of control under setting [12].

`Nc1nc(N)c(N=O)c(Nc2ccc(Br)cc2)n1`: the T/C by setting is: under setting [3], 114 % of control; under setting [10], 107 % of control; under setting [11], 106 % of control.

For `Cc1c2cc[n+](CCN3CCCCC3)cc2c(C)c2c1[nH]c1ccc(O)cc12`, the T/C is, setting by setting: (dose: 6.25 mg/kg/injection, vehicle: suspension in saline) 153 % of control; (dose: 12.5 mg/kg/injection, vehicle: suspension in saline) 204 % of control; under setting [9], 172 % of control and 189 % of control.

Turning to `Cc1ccc(S(=O)(=O)NC(=O)OC23COCN2COC3)cc1`, the T/C by setting is: under setting [2], 112 % of control and 113 % of control; under setting [3], 108 % of control and 106 % of control; under setting [10], 118 % of control; under setting [11], 104 % of control; under setting [12], 105 % of control; under setting [13], 111 % of control and 122 % of control.

With `Nc1nc([Se]c2nc(N)nc3c2ncn3C2OC(CO)C(O)C2O)c2ncn(C3OC(CO)C(O)C3O)c2n1` (centres undefined), the T/C runs as follows: under setting [1], 108 % of control; (dose: 50.0 mg/kg/injection, vehicle: distilled water + Tween-80) 112 % of control; (dose: 100.0 mg/kg/injection, vehicle: distilled water + Tween-80) 89 % of control; (dose: 200.0 mg/kg/injection, vehicle: distilled water + Tween-80) 87 % of control.

Consider `CN(N=O)C(=O)N[C@@H](C=O)[C@@H](O)[C@H](O)[C@H](O)CO`, for which the T/C runs as follows: (dose: 12.5 mg/kg/injection, vehicle: other) 115 % of control; (dose: 25.0 mg/kg/injection, vehicle: other) 120 % of control.

On to `O=C1NC(c2ccccc2)N=C2Oc3ccccc3C=C12` (centres undefined), for which the T/C was 101 % of control (dose: 1.56 mg/kg/injection, vehicle: saline with Tween-80); 103 % of control (dose: 3.12 mg/kg/injection, vehicle: saline with Tween-80); 97 % of control (dose: 3.13 mg/kg/injection, vehicle: saline with Tween-80); 118 % of control and 124 % of control under setting [8]; 116 % of control and 122 % of control under setting [2]; 113 % of control under setting [10].

As for `CC(NC(=O)OCc1ccccc1)C(=O)NC(Cc1c[nH]c2ccccc12)C(=O)O` (centres undefined), the T/C was 95 % of control (dose: 100.0 mg/kg/injection, vehicle: Klucel (hydroxypropylcellulose) (HPC)); 100 % of control (dose: 200.0 mg/kg/injection, vehicle: Klucel (hydroxypropylcellulose) (HPC)); 89 % of control (dose: 400.0 mg/kg/injection, vehicle: Klucel (hydroxypropylcellulose) (HPC)).

Turning to `CSCCC(N)C(=O)O` (centres undefined), the T/C under setting [9] was 106 % of control; the T/C under setting [4] was 94 % of control; the T/C under setting [5] is 100 % of control; the T/C under setting [6] is 113 % of control; the T/C under setting [7] was 99 % of control.

Take `CC(=O)OC1=C(Br)CCc2ccccc21`: the T/C is 88 % of control (dose: 3.12 mg/kg/injection, vehicle: DMSO); 87 % of control (dose: 6.25 mg/kg/injection, vehicle: DMSO); 88 % of control (dose: 12.5 mg/kg/injection, vehicle: DMSO); 91 % of control (dose: 25.0 mg/kg/injection, vehicle: DMSO).

As for `COc1cccc2c1C(=O)c1c(O)c3c(c(O)c1C2=O)CC(O)(/C(C)=N/NC(=O)CCCCC(=O)N/N=C(\C)C1(O)Cc2c(O)c4c(c(O)c2C(OC2CC(N)C(O)C(C)O2)C1)C(=O)c1c(OC)cccc1C4=O)CC3OC1CC(N)C(O)C(C)O1` (centres undefined), the T/C runs as follows: (dose: 1.56 mg/kg/injection, vehicle: water) 191 % of control; (dose: 3.12 mg/kg/injection, vehicle: water) 216 % of control; (dose: 6.25 mg/kg/injection, vehicle: water) 335 % of control.

`[Cl][Pt+2][Cl].[NH-]c1ccccc1[NH-]`: the T/C is, setting by setting: (dose: 0.63 mg/kg/injection, vehicle: saline with Tween-80) 99 % of control; (dose: 1.25 mg/kg/injection, vehicle: saline with Tween-80) 111 % of control; (dose: 5.0 mg/kg/injection, vehicle: saline with Tween-80) 150 % of control.

Turning to `C(=C\c1nc2ccccc2[nH]1)/c1nc2ccccc2[nH]1`, the T/C under setting [3] was 96 % of control, the T/C under setting [10] is 98 % of control and the T/C under setting [12] was 87 % of control.
